Laboratory results reported in PubChem BioAssay (NCI).
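1) Cells in 96-well plates. 2) Compound, 48 h, 5 concentrations. 3) Linear interpolation between surrounding doses. 4) Unreached endpoint = highest concentration. Abbreviation: GI50, concentration required for 50% inhibition of growth. TGI denotes the concentration required for complete inhibition of growth.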

Legend:
Test in all cases: NCI-60 cell line screen, 48 h
HL-60(TB) leukemia = system: HL-60(TB) leukemia
SW-620 colon = system: SW-620 colon
A498 renal = system: A498 renal
OVCAR-8 ovarian = system: OVCAR-8 ovarian
SR leukemia = system: SR leukemia
SNB-19 CNS = system: SNB-19 CNS
RPMI-8226 leukemia = system: RPMI-8226 leukemia
HOP-92 NSCLC = system: HOP-92 NSCLC
SK-MEL-5 melanoma = system: SK-MEL-5 melanoma
EKVX NSCLC = system: EKVX NSCLC

In the case of `Cn1cc(C2=C(c3ccc(OC[C@@H](O)CO)cc3)C(=O)NC2=O)c2ccccc21`, the GI50 (HL-60(TB) leukemia) is reported as > 25 µM, the TGI (HL-60(TB) leukemia) is reported as > 25 µM and the GI50 (SW-620 colon) is reported as > 25 µM. For the same molecule, the TGI (SW-620 colon) was > 25 µM, the GI50 (A498 renal) was 3540 nM and the TGI (A498 renal) was 15.3 µM. For the same molecule, the GI50 (OVCAR-8 ovarian) was > 25 µM, the TGI (OVCAR-8 ovarian) was > 25 µM and the GI50 (SR leukemia) was > 25 µM. For the same molecule, the TGI (SR leukemia) was > 25 µM, the GI50 (SNB-19 CNS) was > 25 µM and the TGI (SNB-19 CNS) was > 25 µM. For the same molecule, the GI50 (RPMI-8226 leukemia) was > 25 µM, the TGI (RPMI-8226 leukemia) was > 25 µM and the GI50 (HOP-92 NSCLC) was > 25 µM. The TGI (HOP-92 NSCLC) was > 25 µM, the GI50 (SK-MEL-5 melanoma) was > 25 µM and the TGI (SK-MEL-5 melanoma) was > 25 µM.
`COc1ccccc1NC(=O)c1ccc(/C=C/C(=O)c2nccn2C)cc1` gave a GI50 (HL-60(TB) leukemia) of 0.547 µM, a TGI (HL-60(TB) leukemia) of 1.41 µM and a GI50 (SW-620 colon) of 0.473 µM. For the same molecule, the TGI (SW-620 colon) was 1.22 µM, the GI50 (A498 renal) was 555 nM and the TGI (A498 renal) was 1.49 µM. For the same molecule, the GI50 (OVCAR-8 ovarian) was 0.916 µM, the TGI (OVCAR-8 ovarian) was 10.1 µM and the GI50 (SR leukemia) was 0.242 µM. The TGI (SR leukemia) was 7 µM, the GI50 (SNB-19 CNS) was 0.553 µM and the TGI (SNB-19 CNS) was 1.59 µM. The GI50 (RPMI-8226 leukemia) was 0.429 µM, the TGI (RPMI-8226 leukemia) was 1.46 µM and the GI50 (HOP-92 NSCLC) was 0.673 µM. The TGI (HOP-92 NSCLC) was 5.01 µM, the GI50 (SK-MEL-5 melanoma) was 0.648 µM and the TGI (SK-MEL-5 melanoma) was 1.68 µM. The GI50 (EKVX NSCLC) was 591 nM and the TGI (EKVX NSCLC) was 1.89 µM.
`NS(=O)(=O)c1ccc(-n2nc(-c3ccc(Br)cc3)ccc2=O)cc1` was tested, and the GI50 (HL-60(TB) leukemia) was > 10 µM, the TGI (HL-60(TB) leukemia) was > 10 µM and the GI50 (SW-620 colon) was > 10 µM. The TGI (SW-620 colon) was > 10 µM, the GI50 (A498 renal) was > 10000 nM and the TGI (A498 renal) was > 10 µM. The GI50 (OVCAR-8 ovarian) was > 10 µM, the TGI (OVCAR-8 ovarian) was > 10 µM and the GI50 (SR leukemia) was 8.85 µM. For the same molecule, the TGI (SR leukemia) was > 10 µM, the GI50 (SNB-19 CNS) was > 10 µM and the TGI (SNB-19 CNS) was > 10 µM. The GI50 (RPMI-8226 leukemia) was > 10 µM, the TGI (RPMI-8226 leukemia) was > 10 µM and the GI50 (HOP-92 NSCLC) was > 10 µM. The TGI (HOP-92 NSCLC) was > 10 µM, the GI50 (SK-MEL-5 melanoma) was > 10 µM and the TGI (SK-MEL-5 melanoma) was > 10 µM.
For `CC[n+]1ccc2c(c1)C(=O)c1nccc3c1c-2nc1ccccc13`, the GI50 (HL-60(TB) leukemia) was 5.79 µM, the TGI (HL-60(TB) leukemia) was 16.9 µM and the GI50 (SW-620 colon) was 1.1 µM. It also gave a TGI (SW-620 colon) of 11.5 µM, a GI50 (A498 renal) of 874 nM and a TGI (A498 renal) of 6.13 µM. The GI50 (OVCAR-8 ovarian) was 1.04 µM, the TGI (OVCAR-8 ovarian) was 6.47 µM and the GI50 (SR leukemia) was 0.339 µM. It also gave a TGI (SR leukemia) of 12.4 µM, a GI50 (SNB-19 CNS) of 0.212 µM and a TGI (SNB-19 CNS) of 0.856 µM. It also gave a GI50 (RPMI-8226 leukemia) of 6.49 µM, a TGI (RPMI-8226 leukemia) of 21.7 µM and a GI50 (HOP-92 NSCLC) of 1.45 µM. The TGI (HOP-92 NSCLC) was 7.02 µM, the GI50 (SK-MEL-5 melanoma) was 1.35 µM and the TGI (SK-MEL-5 melanoma) was 5.54 µM. For the same molecule, the GI50 (EKVX NSCLC) was 3530 nM and the TGI (EKVX NSCLC) was 8.92 µM.
With `O=C(O/N=C1/CCC/C1=C\c1ccccc1)c1ccc([N+](=O)[O-])cc1` the TGI (HL-60(TB) leukemia) was > 100 µM, the TGI (SW-620 colon) was > 100 µM and the TGI (A498 renal) was > 100 µM. The TGI (OVCAR-8 ovarian) was > 100 µM, the TGI (SR leukemia) was > 100 µM and the TGI (RPMI-8226 leukemia) was > 100 µM. For the same molecule, the TGI (HOP-92 NSCLC) was > 100 µM, the TGI (SK-MEL-5 melanoma) was > 100 µM and the TGI (EKVX NSCLC) was > 100 µM.
`CCCCn1/c(=N/C(=S)N(C)C)ss/c1=N\C(=S)N(C)C` was tested, and the TGI (HL-60(TB) leukemia) was > 100 µM, the TGI (SW-620 colon) was > 100 µM and the TGI (A498 renal) was > 100 µM. For the same molecule, the TGI (OVCAR-8 ovarian) was > 100 µM, the TGI (SR leukemia) was > 100 µM and the TGI (SNB-19 CNS) was > 100 µM. For the same molecule, the TGI (RPMI-8226 leukemia) was > 100 µM, the TGI (HOP-92 NSCLC) was > 100 µM and the TGI (EKVX NSCLC) was > 100 µM.
Work on `COc1ccc(CN2CCCC(C(=O)c3ccc(C(F)(F)F)cc3)C2)c(O)c1` (configuration not stated) yielded a GI50 (HL-60(TB) leukemia) of 24.9 µM, a TGI (HL-60(TB) leukemia) of 62 µM and a GI50 (SW-620 colon) of 18.6 µM. For the same molecule, the TGI (SW-620 colon) was 41.2 µM, the GI50 (A498 renal) was 18.9 nM and the TGI (A498 renal) was 33.1 µM. The GI50 (OVCAR-8 ovarian) was 36.6 µM, the TGI (OVCAR-8 ovarian) was > 100 µM and the GI50 (SR leukemia) was 18 µM. For the same molecule, the TGI (SR leukemia) was 66.5 µM, the GI50 (SNB-19 CNS) was 26.3 µM and the TGI (SNB-19 CNS) was > 100 µM. For the same molecule, the GI50 (RPMI-8226 leukemia) was 22 µM, the TGI (RPMI-8226 leukemia) was 62.4 µM and the GI50 (HOP-92 NSCLC) was 11.1 µM. It also gave a TGI (HOP-92 NSCLC) of 58 µM, a GI50 (SK-MEL-5 melanoma) of 15.9 µM and a TGI (SK-MEL-5 melanoma) of 29.8 µM.
